US8138186B2, “Pyrazole derivatives as sigma receptors antagonists” (Laboratorios Del Dr. Esteve, S.A., priority 2006, dated 2012)
Where a name gives a salt, the structure may show the parent alone.

Assays:
σ1-receptor = σ1-receptor (Cavia porcellus, UniProt Q60492); test: σ1-receptor binding assay, [3H](+)-pentazocine, brain membranes; details: [3H](+)-pentazocine 0.5 nM, guinea pig brain membranes; for % Binding σ1 10^−7M: compound 10^−7M; for % Binding σ1 10^−8M: compound 10^−8M
Method: Brain membrane preparation and binding assays for the σ1-receptor were performed as described (DeHaven-Hudkins et al., 1992) with some modifications. In brief, guinea pig brains were homogenized in 10 vols. (w/v) of Tris-HCl 50 mM 0.32 M sucrose, pH 7.4, with a Kinematica Polytron PT 3000 at 15000 r.p.m. for 30 s. The homogenate was centrifuged at 1000 g for 10 min at 4° C. and the supernatants collected and centrifuged again at 48000 g for 15 min at 4° C. The pellet was resuspended in 10 volumes of Tris-HCl buffer (50 mM, pH 7.4), incubated at 37° C. for 30 min, and centrifuged at 48000 g for 20 min at 4° C. Following this, the pellet was resuspended in fresh Tris-HCl buffer (50 mM, pH 7.4) and stored on ice until use.
Each assay tube contained 10 μL of [^3H](+)-pentazocine (final concentration of 0.5 nM), 900 μL of the tissue suspension to a final assay volume of 1 mL and a final tissue concentration of approximately 30 mg tissue net weight/mL. […] All tubes were incubated at 37° C. for 150 min before termination of the reaction by rapid filtration over Schleicher & Schuell GF 3362 glass fibre filters [previously soaked in a solution of 0.5% polyethylenimine for at least 1 h]. Filters were then washed with four times with 4 mL of cold Tris-HCl buffer (50 mM, pH 7.4). Following addition of scintillation cocktail, the samples were allowed to equilibrate overnight. The amount of bound radioactivity was determined by liquid scintillation spectrometry using a Wallac Winspectral 1414 liquid scintillation counter.

[1] = cited from earlier work
sigma (σ-2) site = sigma (σ-2) site (Homo sapiens, UniProt Q5BJF2); details: cited from earlier work
sigma 1 (σ-1) site = sigma 1 (σ-1) site (Homo sapiens, UniProt Q99720); details: cited from earlier work
sigma 1 (σ-1) site, sequence (Q99720 whole entry): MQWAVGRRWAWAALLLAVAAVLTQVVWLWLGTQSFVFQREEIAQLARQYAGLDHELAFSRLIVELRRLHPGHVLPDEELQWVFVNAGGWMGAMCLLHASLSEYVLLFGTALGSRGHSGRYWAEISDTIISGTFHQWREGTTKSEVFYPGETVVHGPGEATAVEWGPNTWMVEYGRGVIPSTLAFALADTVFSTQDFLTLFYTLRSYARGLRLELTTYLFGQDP

σ1-receptor, sequence (Q60492 whole entry): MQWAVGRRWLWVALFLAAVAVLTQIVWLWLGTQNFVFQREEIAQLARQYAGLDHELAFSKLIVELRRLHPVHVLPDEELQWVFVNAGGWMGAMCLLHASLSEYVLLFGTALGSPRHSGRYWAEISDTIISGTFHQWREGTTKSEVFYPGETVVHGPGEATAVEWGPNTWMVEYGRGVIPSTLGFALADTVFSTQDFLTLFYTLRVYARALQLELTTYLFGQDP
sigma (σ-2) site, sequence (Q5BJF2 whole entry): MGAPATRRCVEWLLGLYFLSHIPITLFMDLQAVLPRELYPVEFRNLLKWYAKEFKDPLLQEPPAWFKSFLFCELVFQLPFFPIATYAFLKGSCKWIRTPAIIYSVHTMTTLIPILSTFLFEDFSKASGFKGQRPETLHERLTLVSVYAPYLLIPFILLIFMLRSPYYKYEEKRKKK

Compound | % Binding σ1 10^−7M (σ1-receptor) [%] | % Binding σ1 10^−8M (σ1-receptor) [%] | melting point [°C] | further results
O=C(O)C(=O)O.OC(COc1ccn(-c2ccc(Cl)c(Cl)c2)n1)CN1CCCC1 (stereo not shown) [Example 3, 1-(1-(3,4-dichlorophenyl)-1H-pyrazol-3-yloxy)-3-(pyrrolidin-1-yl)propan-2-ol oxalate] | 55.9 | 32.6 | – | –
Clc1ccc(-n2ccc(OCCOCCN3CCCCC3)n2)cc1Cl [Example 6, 1-(2-(2-(1-(3,4-dichlorophenyl)-1H-pyrazol-3-yloxy)ethoxy)ethyl)piperidine] | 82.8 | 23.7 | – | –
CN1CCN(CC(O)COc2ccn(-c3ccc(Cl)c(Cl)c3)n2)CC1.O=C(O)C(=O)O (stereo not shown) | – | – | 189 to 192 | –
Clc1ccc(-n2ccc(OCCOCCN3CCOCC3)n2)cc1Cl.O=C(O)C(=O)O [Example 7, 4-(2-(2-(1-(3,4-dichlorophenyl)-1H-pyrazol-3-yloxy)ethoxy)ethyl)morpholine oxalate] | 61.6 | 25.8 | 154 to 156 | –
O=C(O)C(=O)O.OC(COc1ccn(-c2ccc(Cl)c(Cl)c2)n1)CN1CCCCC1 (stereo not shown) [Example 2, 1-(1-(3,4-dichlorophenyl)-1H-pyrazol-3-yloxy)-3-(piperidin-1-yl)propan-2-ol oxalate] | 72.2 | 4.2 | 116 to 119 | –
C[C@@H]1CN(CCCn2c3ccccc3c3ccccc32)C[C@H](C)N1 [rimcazole] | – | – | – | clinical effects in the treatment of psychosis [1]: shows effects in the treatment of psychosis
OC(COc1ccn(-c2ccc(Cl)c(Cl)c2)n1)CN1CCOCC1 (stereo not shown) [Example 1, 1-(1-(3,4-dichlorophenyl)-1H-pyrazol-3-yloxy)-3-morpholinopropan-2-ol oxalate] | 70.3 | 22.2 | – | –
SKF 10047 | – | – | – | affinity for the sigma (σ-2) site (sigma (σ-2) site): micromolar affinity; affinity for the sigma 1 (σ-1) site (sigma 1 (σ-1) site): nanomolar affinity
